Laboratory results from a melting point compilation (Tetko et al.; mined from patent text by program, amines drawn as free bases though some values may be those of a salt).

| Structure (SMILES) | melting point [°C] |
| --- | --- |
| O=S1(=O)N=CN(C2CC2)c2cc(F)cc(F)c21 | 167 to 168 |
| CC(C)(CO)NS(=O)(=O)c1cccc(NC(=O)c2cnn3c(C(F)F)cc(-c4ccc(C(F)(F)F)cc4)nc23)c1 | 232 |
| CCc1nnc(-c2ccc(OC)cc2)n1-c1ccc([N+](=O)[O-])cc1 | 178 |
| CC(=O)c1ccc2c(c1O)CC(O)CO2 (stereo not drawn) | 130 to 132 |
| C#CCn1c(Br)c(Br)c(Br)c1C#N | 95 to 105 |
| COc1cc(OC)c2c(=O)cc(-c3ccc(OC)c(I)c3)oc2c1 | 209 to 210 |
| CCn1ncc2cc3c(nc21)C(O)c1ccccc1CC3 (stereo not drawn) | 130 to 132 |
| CCN(CC)CCNc1ccc(C)c2sc3ccc(O)cc3c(=O)c12 | 254 to 255 |
| CC1(C)C(=O)N(c2ccc(C#N)c(C(F)(F)F)c2)C(=S)N1CCCO | 149 to 150 |
| COc1ccc(-c2nc3cc(OC)cc(C#N)c3o2)cc1 | 180 to 183 |
| CCOC[C@@H]1CNCC[C@@H]1c1ccc(Cl)c(Cl)c1 | 68 to 70 |
| COc1cc(CCc2ccc(C)cc2)cc(OC)c1OC | 51 to 52 |
| Nc1cc(C(=O)NNC(=O)c2occ(-c3ccccc3)c2-c2ccccc2)ccc1O | 268 to 270 |
| COC(=O)c1cn(C2CC2)c2c(F)c(F)c(F)cc2c1=O | 214 to 216 |
| CCOC(=O)CCc1ccc(CCN2CCN(S(=O)(=O)c3ccccc3)CC2)cc1 | 114 to 116 |
| OCc1cn2c(n1)CN=C(c1ccccc1)c1cc(Cl)ccc1-2 | 203 to 204 |
| CCC1Cc2ccc(C(C)C(=O)O)cc2C1=O (stereo not drawn) | 85 to 86 |
| CC(=O)C(C(C)=O)[C@@H]1NC(=O)[C@@H]1C(C)(C)O | 109 to 110 |
| CNC(=O)c1cc(NC(=O)c2ccc(C)c(Nc3nccc(-c4cccnc4)n3)c2)cc(N2CCOCC2)c1 | 153 to 156 |
| CC(C)(O)c1cc(C#N)ccc1O | 129 to 130 |

| Structure (SMILES) | melting point [°C] |
| --- | --- |
| CCCc1c(OCCCOc2ccc(C(=O)C(=O)OCC)cc2)ccc(C(=O)OC)c1O | 62 to 64 |
| COc1ccc2c(c1)CC(=O)N2 | 148 to 150 |
| O=C1CCNc2c([N+](=O)[O-])cc(Cl)c(Cl)c21 | 175 to 176 |
| CCCN1N=C2C(=Cc3ccccc3)CS(=O)CC2C1c1ccccc1 (stereo not drawn) | 164 to 166 |
| Oc1ccc2c(c1)CCN(c1ccc(Cl)cc1)C2 | 122 to 123 |
| C#CCOc1cc(-n2nc(CC)c(CC)c2CC)c(F)cc1Cl | 62 to 65 |
| O=C(Cn1ncc(-c2ccccc2)c1-c1ccccc1)NCCCN1CCCC1 | 75 to 79 |
| O=Cc1coc2c(c1=O)CCc1ccccc1-2 | 153 to 156 |
| S=C(NCc1ccccc1)Nc1ccc(NC(=S)NCc2ccccc2)cc1 | 198 |
| O=C1NCCCc2cc(CCN3CCC(c4noc5cc(F)ccc45)CC3)sc21 | 192 to 194 |
| Cc1ccc(C(=O)N2CCc3cc(C(=O)NO)ccc3C2)cc1 | 105 to 108 |
| Cc1cc(Nc2nc(-c3ccc(Cl)c(Cl)c3)nc3ccccc23)[nH]n1 | 274 |
| O=c1c(Cl)c(OCc2ccc(Cl)cc2)cnn1-c1ccc(Cl)cn1 | 167 to 169 |
| CC(=O)Oc1ccc(N)cc1C(=O)O | 133 to 136 |
| N#Cc1c(N2CCc3ccccc3CC2)nc2n(c1=O)CCCC2 | 136 to 140 |
| NS(=O)(=O)c1ccccc1C(=O)OC1COC1 | 169 to 170 |
| CN(Cc1ccccc1CC(=O)O)C(=O)OC(C)(C)C | 96 to 98 |
| COCCOc1ccc(N=Nc2cc(S(=O)(=O)N3CCCC3)c(O)c3cccc(NS(C)(=O)=O)c23)cc1S(=O)(=O)Cl | 184 to 187 |
| N#CC1c2ccccc2Cc2ccccc21 | 106 to 108 |
| CSc1ccc2ccc(N3C(=O)c4ccccc4C3O)nc2n1 (stereo not drawn) | 210 |

| Structure (SMILES) | melting point [°C] |
| --- | --- |
| c1cc2sc(C3OCCO3)cc2s1 | 88 to 90 |
| CCCS(=O)(=O)Nc1c(C(=O)c2ccccc2)[nH]c2cc(Cl)ccc12 | 164 to 167 |
| O=C(Nc1cccnc1Cl)c1ccco1 | 102 |
| CC1CCN(C(=O)C2Cc3ccccc3N2c2ccc(=O)n(C)n2)C1 (stereo not drawn) | 150 to 154 |
| CCOC(=O)CCc1c(OCCCCCBr)ccc2ccc(OCC(=O)OCC)cc12 | 29.5 to 32 |
| CC(=NOC(=O)N(C)C)C1=CCCN(C)C1 | 54 to 55 |
| O=C(O)c1cc2cc3c(cc2oc1=O)OCO3 | 279 to 280 |
| CCOC(=O)C1=COc2ccccc2O1 | 42 |
| CNc1nc(SC)ncc1C | 134 |
| O=C1NCC=NN1c1ccc(Cc2ccc(Cl)cc2)c(Cl)c1 | 196 to 197 |
| CC(SSc1ccccc1C(=O)Nc1ccc(S(N)(=O)=O)cc1)C(=O)O (stereo not drawn) | 268 to 270 |
| FC(F)(F)Sc1cn(-c2c(Cl)cc(C(F)(F)F)cc2Cl)c(Cl)n1 | 112 |
| CCOC(=O)C1=C(N=CN(C)C)NC(C)=C(C(=O)OC(C)C)C1c1ccccc1Cl (stereo not drawn) | 138 |
| COC(=O)c1c[nH]cc1-c1cccc(Cl)c1Cl | 200 to 201 |
| CC(Oc1ccc(Oc2ncc(C(F)(F)F)cc2Cl)cc1)C(=O)Nc1ccc(OC(F)(F)F)cc1 (stereo not drawn) | 140 to 141 |
| CC(C)(C)OC(=O)N(Cc1ccccc1)C1CN(C(c2ccccc2)c2ccccc2)C1 | 117 to 118 |
| NC(=O)c1cccc(Oc2ncccc2C(=O)NCc2ccccc2Cl)c1 | 153 to 155 |
| CSC(=CC(=O)c1ccccc1Br)N1CCN2CCC1CC2 | 107 to 108 |
| CNC(=O)c1cc(=NS(=O)(=O)c2ccccc2)c2c(Cl)cc(Cl)cc2[nH]1 | 196 to 197 |
| COc1cc(C=CC(CSc2ccccc2)=NO)ccc1O | 90 to 100 |

Now from value to molecule:

| melting point [°C] | Structure (SMILES) |
| --- | --- |
| 152 to 154 | O=C(NCCCC[C@H](Nc1nc2ccc(Cl)cc2cc1C(=O)O)C(=O)O)OCc1ccccc1 |
| 130 to 132 | CNc1cccc(F)c1C#N |
| 97 to 98 | O=C(OCc1ccccc1)c1ccc2cc(OCc3ccccc3)ccc2c1 |
| 195 to 197 | Cc1cc(NN)c2ccccc2n1 |
| > 280 | CS(=O)(=O)c1cc2[nH]c(=O)c(=O)n(C3CCCCC3)c2cc1-n1cccc1 |
| 125 to 126 | CCC(C(=O)O)C1=NC(c2ccccc2)(c2ccccc2)CO1 (stereo not drawn) |
| 196 | CN1CCC2(CC1)NC(c1ccccc1)c1cc(Cl)ccc1N(C)C2=O (stereo not drawn) |
| 223 to 224 | CC(C)(C)c1cc(C(=O)Oc2ccc(C(=O)O)cc2)cc(C(C)(C)C)c1O |
| 167 to 168 | CCc1nn(C2CCCC2)c(N)c1C(N)=O |
| 100 to 102 | CON=C(c1ccccc1)c1ccc2c(c1)C(C)(C)CCN2CCOc1ccc(CC(Nc2ccccc2C(=O)c2ccccc2)C(=O)O)cc1 (stereo not drawn) |
| 220 to 240 | Cn1ccnc1Sc1ccc(Nc2c(C#N)cnc3cc(/C=C/CO)ccc23)cc1Cl |
| 97 to 99 | CCOC(=O)[C@]1(O)C=C[C@@H](NC(C)=O)[C@@H]2OC(C)(C)O[C@@H]21 |
| 98 to 99 | Fc1ccc(-c2ncn(CCCSc3ccccc3)c2-c2ccncc2)cc1 |
| 157 to 158 | CN=C1SCC(O)(c2ccc(Cl)c(S(=O)(=O)N(C)C)c2)N1C (stereo not drawn) |
| 66 to 68 | FC(F)(F)c1ccccc1-c1nc(-c2ccccc2Cl)nn1CCCl |
| 137 to 138 | CCOc1nc(-c2ccco2)c2ncn(Cc3ccc(OC)cc3)c2n1 |
| 94 | CCCCc1nnc(-c2ccc(OC)cc2)n1-c1ccc(OC)cc1 |
| 177 to 179 | CC(C(=O)O)c1ccc2oc(-c3ccccc3)nc2c1 (stereo not drawn) |
| 145 to 146 | Nc1ccccc1-n1sc(-c2ccccc2)cc1=O |
| 123 to 125 | CC(C)(C)[Si](C)(C)OC1CCCc2cnc3cc(OCc4ccccc4)ccc3c21 (stereo not drawn) |
| 86 to 88 | O=C(O)COCCCCSc1cnc(-c2ccccc2)c(-c2ccccc2)n1 |
| 172 | Cn1cc(-c2ccccc2)c(=O)c(-c2ccc(Br)cc2)c1 |

| melting point [°C] | Structure (SMILES) |
| --- | --- |
| 156 to 158 | O=C(O)COc1cc(F)c(F)cc1C(=O)NCc1ccc(Br)cc1F |
| 97 to 99 | CC(C)(CCl)C(=O)C(Oc1ccc(-c2ccc(Cl)cc2)cc1)n1ccnc1 (stereo not drawn) |
| 245 to 246 | CCn1cc(C(N)=O)c(=O)c2ccc(-c3ccccn3)cc21 |
| 207 to 209 | O=C(O)C1CCN2c3ccccc3Cc3ccccc3C2C1 (stereo not drawn) |
| 290 | COc1cccc(OC)c1-c1cc(C(=O)NC2(C(=O)O)C3CC4CC(C3)CC2C4)nn1-c1ccc(C#N)c2ccccc12 (stereo not drawn) |
| > 250 | O=Cc1ccn(-c2cc3[nH]c(=O)c(=O)[nH]c3cc2[N+](=O)[O-])c1 |
| 71 to 73 | Clc1cccc(-n2ccnc2)n1 |
| 257 to 258 | CC1(CCN2C(=O)SC(=Cc3ccc(C(F)(F)F)cc3)C2=O)Cn2cc([N+](=O)[O-])nc2O1 (stereo not drawn) |
| 186 to 188 | CCCCOC(=O)c1cc(OC)c(Cc2cnc(N)nc2N)c(OC)c1 |
| > 260 | O=C(Nc1nc2ccc(Sc3nnc4ccc(-c5cccc(F)c5)cn34)cc2s1)C1CC1 |
| 136 to 138 | Nc1ccc(CNc2ccccn2)cc1O |
| 76 | CC(=NOCCO)c1ccc(-c2ccccc2)nc1 |
| 308 to 312 | O=C1c2c(Cl)cccc2-c2cc(O)cc3cccc1c23 |
| 196 to 197 | COc1ccccc1C(=O)Nc1nc2ccccc2s1 |
| 64 to 67 | CCCC(c1cccc(NC(=O)OCc2ccccc2)c1)c1c(O)c2c(oc1=O)CCCCCC2 (stereo not drawn) |
| 160 to 162 | CN1CCC(=O)C(C2c3ccccc3Oc3ccccc32)C1 (stereo not drawn) |
| 130 to 132 | O=C(NC1CCN(CCC2CCOc3ccccc32)CC1)C1CCc2ccccc2C1 (stereo not drawn) |
| 211 to 212 | CN(C(=O)c1cc2ccccc2s1)c1ccc(N2CCC(O)CC2)c(C#N)c1 |
| 211 to 214 | CCN1CCN(c2cc3c(cc2F)c(=O)c(C(=O)O)c2n3C(C)S2)CC1 (stereo not drawn) |
| 136 to 139 | CCOC(=O)C1=CNC2=C(C(=O)OC)CCC(C)N2C1=O (stereo not drawn) |
| 89 | CCCOc1ccccc1-c1nc2c(CCCc3ccccc3)cccc2c(=O)[nH]1 |
